Laboratory results reported in patent USH1453H, “N-acetyl-D-glucosamine deacetylase and a process for preparing the same” (priority 1993, dated 1995).

What was measured:
[1] = biological target: N-acetyl-D-glucosamine deacetylase (Vibrio cholerae, UniProt O32445); assay: Substrate specificity of the enzyme; format: biochemical, Vibrio cholerae non-01 (IFO 15429); conditions: substrate 0.2%, 37° C., pH 7.8, one hour
[2] = test system: Mucor sp.; conditions: method using a microorganism belonging to Mucor sp.; cited from earlier work
[3] = Determination of the enzymatic activity (D-glucosamine formed, indole-HCl colorimetry); format: biochemical; conditions: 37° C.; for specific activity: pH 7.8
Experimental: An enzyme solution (0.1 ml) is added to 0.3 ml of 100 mM phosphate buffer (pH 7.8) containing 0.1 ml of 1% N-acetyl-D-glucosamine as a substrate, and the resultant mixture is incubated at 37° C. for 30 minutes. The amount of D-glucosamine formed is determined colorimetrically using indole-HCl according to the method of Z. Dische and E. Borenfreund [J. Biol. Chem., 184:517 (1950)]. One unit of the enzyme is defined as the amount of the enzyme which is capable of producing 1 μmol D-glucosaminefrom N-acetyl-D-glucosamine per minute at 37° C.

[4] = Optimal pH of the enzyme; format: biochemical; conditions: at 37° C.; indole-HCl method at pH 5.6-10.8
Experimental: The optimal pH of the enzyme of the present invention varies widely depending on the origin of the microorganism used to produce the enzyme, but usually in the range of about 4.0-9.0. For example, the optimal pH of the enzyme derived from Vibrio sp. is in the range of 7.8-8.2 as determined colorimetrically according to indole-HCl method at pH 5.6-10.8. The buffer solution used at pH 5.6-6.0 is 100 mM CH3 COOH--CH3 COONa, at pH 6.0-9.0, 100 mM […] -Na2 HPO4 is used, and at pH 9.6-10.8, 200 mM Na2 HPO4 -NaOH is used.

[5] = Stable pH of the enzyme; format: physicochemical; conditions: not less than 50% of initial activity retained, determined at 37° C. after incubation at 45° C. for 30 minutes
Experimental: The stable pH wherein not less than 50% of the initial activity of the enzyme is retained, as determined at 37° C. after incubation in a given buffer at 45° C. for 30 minutes, varies depending on the origin of the microorganism used to produce the enzyme, but usually ranges from about 3.0 to 9.0. For example, the stable pH of the enzyme derived from Vibrio sp. is in the range of about 6.0-9.0.

Sequence of N-acetyl-D-glucosamine deacetylase (O32445 whole entry): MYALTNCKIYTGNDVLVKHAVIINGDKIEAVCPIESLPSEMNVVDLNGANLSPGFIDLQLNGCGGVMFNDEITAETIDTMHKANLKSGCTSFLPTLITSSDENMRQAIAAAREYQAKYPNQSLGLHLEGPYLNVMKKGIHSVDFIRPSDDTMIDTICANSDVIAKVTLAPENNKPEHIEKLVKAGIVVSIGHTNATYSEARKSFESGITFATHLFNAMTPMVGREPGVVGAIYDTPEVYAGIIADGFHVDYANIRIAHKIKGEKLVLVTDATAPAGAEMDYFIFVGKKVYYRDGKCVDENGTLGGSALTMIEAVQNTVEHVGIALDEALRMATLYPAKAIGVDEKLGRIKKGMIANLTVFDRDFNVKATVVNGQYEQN

Compound: CC(=O)N[C@H]1C(O)O[C@H](CO)[C@@H](O)[C@@H]1O (stereo partly drawn) [GlcNAc, N-acetyl-D-glucosamine]
- Enzymatic Activity [1]: 1.22 Unit/mg
- formation of D-glucosamine [1]: can be observed

Compound: (GlcNAc)5
- deacetylated to the extent of [2]: 12-14%

Compound: N-acetyl-D-glucosamine deacetylase
- specific activity ([3]; listed as enzyme): 1.22 unit/mg protein
- specific activity ([3]; listed as purified enzyme): 1.22 U/mg protein
- Spec. Act. ([3]; Table 1, per purification step, pH 7.8, 30 minutes): 1.22 Unit/mg
- Optimal pH [4]: 7.8-8.2
- Stable pH [5]: 6.0-9.0
